Reference: paper PMC10016038, “Enhanced Endosomal Signaling and Desensitization of GLP-1R vs GIPR in Pancreatic Beta Cells” (Endocrinology, 2023)
“Also recorded” adds a separate entry of the source.

What was measured:
[1] = system: cAMP response in INS-1 832/3 cells; experiment: cAMP HTRF assay; assay type: cell-based, rat; conditions: 100 nM, log(Emax/EC50) in Fig. 7A, n = 5
Text: Results were expressed as basal fold increase responses and fitted to 3-parameter curves using Prism 9 (GraphPad).
Figure 7. Functional analysis of GLP-1R vs GIPR signaling in beta cells. […] Data are mean ± SEM, compared by paired t tests; *P < .05; ns, nonsignificant.

SNAP-tagged human GIPR [2] = experiment: High-content microscopy recycling, SNAP-GIPR; assay type: cell-based; conditions: 100 nM, 60 min recycling, 37 °C, n = 5
Experimental: (§1) The assay was performed as previously described ([21]). The INS-1 832/3 SNAP-GLP-1R or SNAP-GIPR cells were seeded into poly-D-lysine-coated, black 96-well plates. On the day of the assay, labeling was performed with BG-S-S-649 (1 µM), a surface-labeling SNAP-tag probe that can be released on application of reducing agents such as Mesna. After washing, treatments were applied for 30 minutes at 37 °C in complete medium. Ligand was removed and cells washed with cold HBSS and placed on ice for subsequent steps. Mesna (100 mM in alkaline TNE buffer, pH 8.6) or alkaline TNE buffer without Mesna was applied for 5 minutes, and then washed with HBSS. Cells were imaged by widefield microscopy, with both epifluorescence and transmitted phase contrast images acquired. On imaging completion, HBSS was removed and replaced with fresh complete medium, and receptor was allowed to recycle for 60 minutes at 37 °C, followed by a second Mesna application to remove any receptor that had recycled to the plasma membrane, with the plate re-imaged as above. Internalized receptor at each time point was determined from cell-containing regions as determined from the phase contrast image using […] ([22]) and used to determine internalization and recycling parameters as previously described ([21]). […]

GIPR-NanoLuc = experiment: Rab5-Venus bystander NanoBRET (early endosome), GIPR; assay type: cell-based; conditions: n = 5
Text: (§2) GLP-1R-NanoLuc was generated in house by polymerase chain reaction (PCR) cloning of the NanoLuciferase sequence from pcDNA3.1-ccdB-NanoLuc (a gift from Prof. Mikko Taipale; Addgene plasmid # 87067) onto the C-terminus end of the SNAP-GLP-1R vector (CisBio), followed by site-directed mutagenesis of the GLP-1R stop codon. GIPR-NanoLuc was subsequently cloned in house by exchanging the GLP-1R for the GIPR in the GLP-1R-NanoLuc construct. KRAS- and Rab5-Venus plasmids were a gift from Prof. Kevin Pfleger, University of Western Australia. The INS-1 832/3 GLP-1R KO and GIPR KO cells were seeded in 12-well plates and co-transfected with 0.2 µg KRAS-Venus and 0.1 µg GLP-1R- or GIPR-NanoLuc, respectively, or 0.5 µg Rab5-Venus and 0.1 µg GLP-1R- or GIPR-NanoLuc, respectively.
(§3) All NanoBiT and NanoBRET readings were obtained in a Flexstation 3 plate reader. Briefly, 24 hours after transfection, cells were detached, resuspended in NanoGlo Live Cell Reagent (Promega) with furimazine (1:20 dilution) and seeded into white 96-well half-area plates. […] Readings were normalized to well baseline and then to average vehicle-induced signal to establish the agonist-induced effect. AUCs from response curves were calculated for each agonist concentration and fitted to four-parameter curves using Prism 9 (GraphPad).
(§4) Figure 2. Endosomal vs plasma membrane localization of GLP-1R compared with GIPR in beta cells. […]

SNAP-GIPR = experiment: Nb37 bystander NanoBiT, endosome (Endofin), GIPR; assay type: cell-based, human; conditions: Endofin-LgBiT, n = 4
Text: The Nb37 assay constructs were kindly provided by Prof. Asuka Inoue, Tohoku University, Japan. Nb37 (gene synthesized by GenScript with codon optimization) was C-terminally fused to SmBiT with a 15 amino acid flexible linker ([…]), and the resulting construct referred to as Nb37-SmBiT. The C-terminal KRAS CAAX motif ([…]) was N-terminally fused with LgBiT (LgBiT-CAAX). The Endofin FYVE domain (amino acid region Gln739-Lys806) was C-terminally fused with LgBiT (Endofin-LgBiT). Gαs (human, short isoform), Gβ1 (human), Gγ2 (human), and RIC8B (human, isoform 2) plasmids were inserted into pcDNA3.1 or pCAGGS expression plasmid vectors. INS-1 832/3 GLP-1R KO or GIPR KO cells were seeded in 6-well plates and co-transfected with 0.1 μg SNAP-GLP-1R or SNAP-GIPR, 0.5 μg Gαs, Gβ1, and Gγ2, 0.1 μg RIC8B, 0.1 μg CAAX-LgBiT or 0.5 μg Endofin-LgBiT with 0.1 μg or 0.5 μg Nb37-SmBiT, respectively, with 0.8 µg pcDNA3.1 added to the former to equalize DNA content.
All NanoBiT and NanoBRET readings were obtained in a Flexstation 3 plate reader. […] Readings were normalized to well baseline and then to average vehicle-induced signal to establish the agonist-induced effect. AUCs from response curves were calculated for each agonist concentration and fitted to four-parameter curves using Prism 9 (GraphPad). […]

SNAP-tagged human GIPR [3] = experiment: High-content microscopy internalization, SNAP-GIPR; assay type: cell-based; conditions: BG-S-S-649, 30 min, 37 °C, respective endogenous agonists, n = 5
Experimental: as §1

GLP-1R-NanoLuc = experiment: Rab5-Venus bystander NanoBRET (early endosome), GLP-1R; assay type: cell-based; conditions: n = 5
Text: as §2, §3, §4

Substance	cAMP response, GIP compared with GLP-1, INS-1 832/3 [1]	Recycling rate of GIPR compared with GLP-1R (SNAP-tagged human GIPR [2])	Agonist-mediated redistribution of GIPR to Rab5-positive early endosomes (GIPR-NanoLuc)	GIPR endosomal activity, Emax response vs GLP-1R (SNAP-GIPR)	GIPR potency for endosomal signaling vs GLP-1R (SNAP-GIPR)	Internalization of GIPR compared with GLP-1R (SNAP-tagged human GIPR [3])	Agonist-mediated redistribution of GLP-1R to Rab5-positive early endosomes (GLP-1R-NanoLuc)
GIP(1-42)	near-significant increase; also recorded: tendency toward increased	significantly increased recycling rates	virtually absent	profoundly reduced	increased potency	significantly less internalization	
GLP-1(7-36)NH2							clearly detectable
